The subject of data set [1] is Rattus norvegicus. Kind of data set: Antihypertensive activity in telemeterized hypertensive Dahl salt-sensitive rat assessed as duration of mean arterial blood pressure lowering action at 100 mg/kg, po. The format is functional, Artery.
In data set [2] the test system is Rattus norvegicus. As to the kind of experiment: Antihypertensive activity in telemeterized hypertensive Dahl salt-sensitive rat assessed as reduction in mean arterial blood pressure at 100 mg/kg, po measured over 6 hrs. It is filed as functional, Artery.
The test system of data set [3] is Rattus norvegicus. As to the kind of experiment: Antihypertensive activity in telemeterized hypertensive Dahl salt-sensitive rat assessed as duration of mean arterial blood pressure lowering action at 3 mg/kg, po. The format is functional, Artery.
Data set [4] deals with Rattus norvegicus. As to the kind of experiment: Antihypertensive activity in telemeterized hypertensive Dahl salt-sensitive rat assessed as reduction in mean arterial blood pressure at 3 mg/kg, po measured over 6 hrs. It is filed as functional, Artery.
In data set [5] the test system is Rattus norvegicus. Kind of data set: Effect on heart rate in telemeterized hypertensive Dahl salt-sensitive rat at 3 mg/kg, po.
Data set [6] is filed under the species Rattus norvegicus. As to the kind of experiment: Toxicity in rat assessed as inhibition of bile salt transport. The settings on record: in vivo. It is filed as organism-based.
For another data set, the species on record is Canis familiaris. Kind of data set: Drug metabolism in beagle dog assessed as N-[5-(4-Bromophenyl)-6-[2-[(5-bromo-2-pyrimidinyl)oxy]ethoxy]-4-pyrimidinyl]-sulfamide formation. The format is ADME, organism-based, Canis lupus familiaris. The settings on record: in vivo.
Data set [7] is filed under the species Rattus norvegicus. As to the kind of experiment: Drug metabolism in Wistar rat assessed as N-[5-(4-Bromophenyl)-6-[2-[(5-bromo-2-pyrimidinyl)oxy]ethoxy]-4-pyrimidinyl]-sulfamide formation. The format is ADME, organism-based. The settings on record: in vivo.
Data set [8] can be described thus: Oral bioavailability in beagle dog at 10 mg/kg. The settings on record: in vivo. It is filed as ADME, organism-based, Canis lupus familiaris.
Data set [9] is described as follows: Tmax in beagle dog at 10 mg/kg, po. The settings on record: in vivo. Details: dose 10 mg/kg, route oral. The format is ADME, organism-based, Canis lupus familiaris.
Data set [10] in a line: AUC (0 to infinity) in beagle dog at 10 mg/kg, po. The settings on record: plasma. The format is ADME, organism-based, Canis lupus familiaris. Details: time infinity, dose 10 mg/kg, route oral.
Data set [11] in a line: Cmax in beagle dog at 10 mg/kg, po. It is filed as ADME, organism-based, Canis lupus familiaris. Details: dose 10 mg/kg, route oral. The settings on record: in vivo.
A short description of data set [12]: Half life in beagle dog at 1 mg/kg, iv. The format is ADME, organism-based, Canis lupus familiaris. Details: dose 1 mg/kg, route intravenous. The settings on record: in vivo.
A short description of data set [13]: Clearance in beagle dog at 1 mg/kg, iv. The format is ADME, organism-based, Canis lupus familiaris. Details: dose 1 mg/kg, route intravenous. The settings on record: in vivo.
A short description of data set [14]: Volume of distribution at steady state in beagle dog at 1 mg/kg, iv. The settings on record: in vivo, read-out: Vdss. Details: dose 1 mg/kg, route intravenous. It is filed as ADME, organism-based, Canis lupus familiaris.
The nature of data set [15]: AUC (0 to infinity) in beagle dog at 1 mg/kg, iv. The format is ADME, organism-based, Canis lupus familiaris. Details: dose 1 mg/kg, route intravenous, time infinity. The settings on record: plasma.
Data set [16] is described as follows: Tmax in Wistar rat at 10 mg/kg, po. It is filed as ADME, organism-based. The settings on record: in vivo. Details: dose 10 mg/kg, route oral.
Data set [17] is described as follows: Oral bioavailability in Wistar rat at 10 mg/kg. It is filed as ADME, organism-based. The settings on record: in vivo.
The nature of data set [18]: AUC (0 to infinity) in Wistar rat at 10 mg/kg, po. It is filed as ADME, organism-based. The settings on record: plasma. Details: time infinity, dose 10 mg/kg, route oral.
Data set [19] is described as follows: Cmax in Wistar rat at 10 mg/kg, po. The format is ADME, organism-based. Details: dose 10 mg/kg, route oral. The settings on record: in vivo.
A short description of data set [20]: Volume of distribution at steady state in Wistar rat at 1 mg/kg, iv. The settings on record: in vivo, read-out: Vdss. Details: dose 1 mg/kg, route intravenous. It is filed as ADME, organism-based.
Data set [21] is described as follows: Half life in Wistar rat at 1 mg/kg, iv. It is filed as ADME, organism-based. Details: dose 1 mg/kg, route intravenous. The settings on record: in vivo.
Data set [22] is described as follows: Clearance in Wistar rat at 1 mg/kg, iv. It is filed as ADME, organism-based. Details: dose 1 mg/kg, route intravenous. The settings on record: in vivo.
Data set [23] can be described thus: AUC (0 to infinity) in Wistar rat at 1 mg/kg, iv. The settings on record: plasma. Details: time infinity, dose 1 mg/kg, route intravenous. The format is ADME, organism-based.
Data set [24] deals with Rattus norvegicus. As to the kind of experiment: Toxicity in telemeterized hypertensive Dahl salt-sensitive rat assessed as tachyphylaxis at 1 mg/kg, po administered QD for 5 days. The format is organism-based. Details: dose 1 mg/kg, route oral. The settings on record: in vivo, 120 h.
Data set [25] has as its system Rattus norvegicus. As to the kind of experiment: Antihypertensive activity in telemeterized hypertensive Dahl salt-sensitive rat assessed as reduction in mean arterial blood pressure at 1 mg/kg, po administered QD for 5 days. It is filed as functional, Artery.
For the next data set, the target named is T1, Endothelin-1 receptor (Homo sapiens, UniProt P25101).
T1 sequence (P25101 whole entry): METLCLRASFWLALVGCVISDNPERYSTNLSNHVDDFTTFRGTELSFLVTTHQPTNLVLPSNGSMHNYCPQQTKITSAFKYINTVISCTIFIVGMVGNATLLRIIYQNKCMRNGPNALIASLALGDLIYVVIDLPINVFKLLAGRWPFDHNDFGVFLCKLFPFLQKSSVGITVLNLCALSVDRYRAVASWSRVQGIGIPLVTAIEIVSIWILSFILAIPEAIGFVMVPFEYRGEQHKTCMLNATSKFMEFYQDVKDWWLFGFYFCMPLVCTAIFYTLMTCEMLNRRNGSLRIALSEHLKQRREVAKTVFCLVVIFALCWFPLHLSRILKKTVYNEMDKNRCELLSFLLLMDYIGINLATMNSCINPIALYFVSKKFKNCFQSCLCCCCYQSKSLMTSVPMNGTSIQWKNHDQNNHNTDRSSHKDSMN
As to the kind of experiment: Displacement of [I125]ET1 from recombinant ETA receptor expressed in CHO cells after 2 hrs by TopCount analysis. The format is cell-based.

Data set [26] relates to Rattus norvegicus. As to the kind of experiment: Effect on heart rate in telemeterized hypertensive Dahl salt-sensitive rat at 1 to 100 mg/kg, po.
Data set [27] relates to Rattus norvegicus. As to the kind of experiment: Antihypertensive activity in po dosed telemeterized hypertensive Dahl salt-sensitive rat assessed as reduction in mean arterial blood pressure. The settings on record: Artery.
Data set [28] concerns Rattus norvegicus. As to the kind of experiment: Antihypertensive activity in telemeterized hypertensive Dahl salt-sensitive rat assessed as reduction in mean arterial blood pressure at 1 mg/kg, po administered QD for 5 days measured 48 hrs post last-dose. The settings on record: Artery.

The source made the active and inactive calls. The rule behind the calls is not given here.

Regarding `COc1ccccc1Oc1c(NS(=O)(=O)c2ccc(C(C)(C)C)cc2)nc(-c2ncccn2)nc1OCCO` [BOSENTAN], the Time came out at 72 h with Rattus norvegicus [1] and 15 h in the data set with Rattus norvegicus [3]. The MPE with Rattus norvegicus [2] turned out to be 30 mmHg. The “Fall in mean arterial blood pressure” value in the data set on Rattus norvegicus [4] came to 7 mmHg. Also, the outcome with Rattus norvegicus [5] was inactive.

Usually bioavailability stands for the share of a dose that reaches the circulation, judged against a reference dose that is usually intravenous. The Tmax is the time from dosing to the highest level. The AUC(0-inf) is the area under the concentration-time curve extrapolated to infinity. For orientation: Cmax means the peak of the concentration-time curve. The term half-life denotes the time in which the quantity being followed falls by half. High values mean slow loss, low ones fast loss. In general, clearance refers to the volume of plasma or blood freed of the substance per unit of time. A higher clearance goes with efficient removal. A word on the IC50: it is the concentration that inhibits the measured activity by half. For the molecule `CCCNS(=O)(=O)Nc1ncnc(OCCOc2ncc(Br)cn2)c1-c1ccc(Br)cc1`, the Activity entry in the data set listed under Rattus norvegicus [6] was “Non-toxic”; in the data set with Rattus norvegicus [24] it was “Non-toxic”; in the data set on Rattus norvegicus [27], “Dose-dependent effect”. The Drug metabolism result in the data set filed under Canis familiaris and in the data set filed under Rattus norvegicus [7] was “Active” each time. Moreover, the bioavailability amounted to 87% in [8] and 69% in data set [17]. Further, the time to peak (Tmax) in data set [9] was 2 h; in [16] it was 6 h. Besides, the AUC(0-inf) stood at 27500 ng·h/mL in data set [10], 3170 ng·h/mL in [15], 18500 ng·h/mL in [18] and 2680 ng·h/mL in [23]. For the same molecule, the Cmax stood at 4590 ng/mL in data set [11] and 1670 ng/mL in data set [19]. In addition, the half-life was 4.1 h in data set [12] and 5.1 h in data set [21]. Besides, the clearance stood at 5.4 mL/min/kg in data set [13] and 6.7 mL/min/kg in [22]. Moreover, the Vd is 0.9 L/kg in data set [14] and 1.8 L/kg in data set [20]. For the same molecule, the MPE in the data set on Rattus norvegicus [25] came to 20 mmHg. For the same molecule, in the data set on Rattus norvegicus [3], the Time stood at 60 h. Further, the “Fall in mean arterial blood pressure” value with Rattus norvegicus [4] came to 25 mmHg. Moreover, on Endothelin-1 receptor, the IC50 came out at 0.5 nM. Besides, the result in the data set with Rattus norvegicus [26] was inactive. Further, the result in the data set with Rattus norvegicus [28] was Active.

These data come from ChEMBL document CHEMBL2163289, “The discovery of N-[5-(4-bromophenyl)-6-[2-[(5-bromo-2-pyrimidinyl)oxy]ethoxy]-4-pyrimidinyl]-N'-propylsulfamide (Macitentan), an orally active, potent dual endothelin receptor antagonist” (J Med Chem, 2012).
